Measurements: ChEMBL document CHEMBL2074535, “Differential interactions of cytochalasins with P-glycoprotein” (Oncol Res, 1995)

Legend:
[1] = target: T1, ATP-dependent translocase ABCB1 (Homo sapiens, UniProt P08183); assay: TP_TRANSPORTER: increase in Vinblastine intracellular accumulation (Vinblastine: 0.01-0.02 uM, Cytochalasine E: 10 uM) in MCF-7/ADR cells; assay type: functional, cell-based; settings: nci/adr-res
[2] = target: T1, ATP-dependent translocase ABCB1; assay: TP_TRANSPORTER: increase in Vinblastine intracellular accumulation (Vinblastine: 0.01-0.02 uM, Dihydrocytochalasin B: 10 uM) in MCF-7/ADR cells; assay type: functional, cell-based; settings: nci/adr-res
[3] = target: T1, ATP-dependent translocase ABCB1; assay: TP_TRANSPORTER: ATP hydrolysis in membranes from MCF/ADR cells; assay type: functional, cell membranes, Membrane

T1 sequence (P08183 whole entry): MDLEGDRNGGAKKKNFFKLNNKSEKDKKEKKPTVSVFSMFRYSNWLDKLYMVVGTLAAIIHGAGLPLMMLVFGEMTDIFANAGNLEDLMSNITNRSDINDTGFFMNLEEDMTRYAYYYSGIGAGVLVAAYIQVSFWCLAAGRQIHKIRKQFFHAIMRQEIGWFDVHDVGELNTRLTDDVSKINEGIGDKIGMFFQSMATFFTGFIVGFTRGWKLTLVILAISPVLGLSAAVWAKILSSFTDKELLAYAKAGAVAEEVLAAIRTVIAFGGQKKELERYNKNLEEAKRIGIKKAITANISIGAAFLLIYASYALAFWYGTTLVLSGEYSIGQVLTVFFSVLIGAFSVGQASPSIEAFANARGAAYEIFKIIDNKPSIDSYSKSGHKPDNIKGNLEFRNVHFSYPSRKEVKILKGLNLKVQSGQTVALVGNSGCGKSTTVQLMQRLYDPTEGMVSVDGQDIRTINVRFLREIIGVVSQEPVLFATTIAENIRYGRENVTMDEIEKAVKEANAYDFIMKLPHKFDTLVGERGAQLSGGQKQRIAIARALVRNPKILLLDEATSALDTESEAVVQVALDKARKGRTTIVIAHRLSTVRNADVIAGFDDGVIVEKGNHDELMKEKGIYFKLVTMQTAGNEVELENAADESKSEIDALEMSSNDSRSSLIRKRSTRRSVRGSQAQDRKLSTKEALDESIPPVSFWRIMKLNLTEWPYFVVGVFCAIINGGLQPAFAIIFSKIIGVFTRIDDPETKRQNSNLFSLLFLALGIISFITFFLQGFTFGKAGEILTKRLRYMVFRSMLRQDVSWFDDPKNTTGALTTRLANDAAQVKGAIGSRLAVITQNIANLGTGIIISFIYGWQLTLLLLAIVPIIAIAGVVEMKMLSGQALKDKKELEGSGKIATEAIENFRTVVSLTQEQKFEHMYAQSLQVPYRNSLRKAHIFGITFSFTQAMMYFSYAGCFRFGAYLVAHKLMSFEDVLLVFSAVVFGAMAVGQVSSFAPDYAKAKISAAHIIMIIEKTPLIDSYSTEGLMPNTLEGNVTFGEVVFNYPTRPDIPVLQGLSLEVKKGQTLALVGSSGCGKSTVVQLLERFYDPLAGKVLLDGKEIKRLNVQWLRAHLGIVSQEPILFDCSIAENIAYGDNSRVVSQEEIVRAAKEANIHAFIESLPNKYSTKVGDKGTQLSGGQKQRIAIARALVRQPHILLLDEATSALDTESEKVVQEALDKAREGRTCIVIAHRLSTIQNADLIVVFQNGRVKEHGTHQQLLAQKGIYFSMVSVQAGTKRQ

| Activity [2] [%] | Activity [3] | SMILES | Activity [1] [%] |
| --- | --- | --- | --- |
| – | – | C[C@H]1C/C=C/[C@H]2[C@@H]3O[C@]3(C)[C@@H](C)[C@H]3[C@H](Cc4ccccc4)NC(=O)[C@]32OC(=O)O/C=C/[C@@](C)(O)C1=O [CYTOCHALASIN E] | 190 |
| 257 | substrate [+] | C=C1[C@@H](C)[C@H]2[C@H](Cc3ccccc3)NC(=O)[C@]23OC(=O)CC[C@H](O)CCC[C@@H](C)C/C=C/[C@H]3[C@@H]1O [DIHYDROCYTOCHALASIN B] | – |
